From patent US4316022A, “Benzo-as-triazine derivatives” (priority 1979, dated 1982)
Like-named read-outs stand apart in the source and are kept apart here.

Experiments:
[1] = tested on: carrageenin-provoked paw oedema; assay: antiphlogistic (oedema-inhibiting) effect, carrageenin paw oedema on rats; type: in vivo; conditions: for ED30: Rattus norvegicus, read-out: ED30 (antiphlogistic effect); for Therapeutical index (antiphlogistic effect): carrageenin paw oedema
Method: The antiphlogistic (oedema-inhibiting) effect was tested on rats. 0.1 ml of a 1% carrageenin solution were injected into the plantar region of one of the hind paws. The volume of the paw was measured just before and 3 hours after the introduction of the oedema-provoking agent by a mercury plethysmometer.

narcosis = narcosis potentiating effect on mice, method of Kaergaard; type: in vivo; conditions: for ED50: Mus musculus, read-out: ED50 (narcosis potentiating effect)
Method: The narcosis potentiating effect was determined on mice by the method of Kaergaard (Arch. Int. Pharmacodyn. 2, 170/1967/).

in vivo = conditions: mouse, po
Method: The toxicity of the new compounds according to the invention was determined on mice after oral administration. The chemical names of the reference compounds are as follows: […]

acetic acid writhing = assay: analgesic effect, acetic acid writhing test on mice; type: in vivo; conditions: for ED50: Mus musculus, read-out: ED50 (analgesic effect); for Therapeutical index (analgesic effect): writhing test
Method: The analgesic effect of the new compounds according to the invention was determined on mice by the acetic acid writhing test.

[2] = rats, dosage inhibiting inflammation by 30%, 3 hours after carrageenin
[3] = mice, oral, acetic acid given 1 h after treatment, writhings counted within 5 minutes

SMILES | ED30 [1, 2] [mg/kg] | Therapeutical index (antiphlogistic effect) ([1]; rats) | ED50 (narcosis; mice, method of Kaergaard) [mg/kg] | Therapeutical index (narcosis potentiating effect) (narcosis; mice, method of Kaergaard) | LD50 (in vivo) [mg/kg] | ED50 (acetic acid writhing; [3]) [mg/kg] | Therapeutical index (analgesic effect) (acetic acid writhing; mice, oral) | other results
CC(=O)N1c2ccccc2-n2cnnc2N1C(C)=O [Example 1, 4,5-diacetyl-4,5-dihydro-s-triazolo-[3,4-c]benzo-as-triazine] | 110 | 10 | 75 | 15 | 1100 | – | – | –
CCC(=O)N1c2ccccc2-n2c(SC)nnc2N1C(=O)CC [Example 5, 1-methylthio-4,5-dipropionyl-4,5-dihydro-s-triazolo[3,4-c]benzo-as-triazin] | – | – | 140 | 7 | 1000 | 100 | 10 | –
CCCc1c(O)n2c3nncn3c3ccccc3n2c1=O [Example 11, 1-oxo-3-hydroxy-2-n-propyl-pyrazolo[1,2-a]-s-triazolo-[3,4-c]benzo-as-triazine] | – | – | – | – | 2000 | – | – | –
CCC(=O)N1Nc2nncn2-c2ccccc21 [Example 4, 5-propionyl-4,5-dihydro-s-triazolo[3,4-c]benzo-as-triazine] | 22 | 79.55 | 140 | 13 | 1750 | 175 | 10 | –
CC(=O)Oc1ccccc1C(=O)O [Acetylsalicylic acid, reference compound] | – | 8.33 | – | – | 1500 | – | – | ED30 ([1]; 3 h): 180 mg/kg
CCC(=O)N1c2ccccc2-n2cnnc2N1C(=O)CC [Example 3, 4,5-dipropionyl-4,5-dihydro-s-triazolo[3,4-c]benzo-as-triazine] | – | – | 80 | 25 | 2000 | 200 | 10 | –
CC(=O)Nc1ccc(O)cc1 [Paracetamol, N-(hydroxyphenyl)acetamide, reference compound] | – | – | – | – | – | – | – | ED50 (acetic acid writhing; po): 180 mg/kg
CCCCC1C(=O)N(c2ccccc2)N(c2ccccc2)C1=O [Phenylbutazone, 4-butyl-1,2-diphenyl-3,5-pyrazolidinedione, reference compound] | 90 | – | – | – | – | – | – | –
CCCC(C)(COC(N)=O)COC(N)=O [Meprobamate, 2-methyl-2-propyl-1,3-propanediol dicarbamate, reference compound] | – | – | – | 4.2 | 1100 | – | – | ED50 (narcosis): 260 mg/kg
